Assay results as given in paper PMC8126888 (RSC Medicinal Chemistry, 2020).
pIC50: −log10 of the molar value. Read-outs that look alike come from different tables or passages of the source.

Experiments:
[1] = test system: Trypanosoma cruzi, Tulahuen CL2, beta-galactosidase strain; test: microbe, parasite or virus in culture; details: for pIC50: MRC5, read-out: T. cruzi Tulahuen C4 (LacZ) IC50; for IC50: MRC5, read-out: T. cruzi Tulahuen C4 (LacZ) IC50 (uM)
[2] = in vitro; details: Swiss, mouse
[3] = test system: Leishmania infantum MHOM/MA(BE)/67/ITMAP263 intracellular amastigotes; test: microbe, parasite or virus in culture; details: Macrophage, in Mus musculus; for pIC50: read-out: L. infantum MHOM/MA(BE)/67/ITMAP263 intracellular amastigotes IC50
[4] = test system: primary peritoneal mouse macrophages (PMM); details: PMM IC50 / L. infantum IC50
[5] = in vitro; details: human
[6] = in vitro; details: mouse, microsomes, mouse liver microsomes
[7] = in vitro; details: human, microsomes, human liver microsomes
[8] = in vitro; details: PAMPA
[9] = physchem; details: HPLC, Ascentis Express RP Amide column, pH 7.4, eLogD
[10] = in vitro; details: PAMPA; remark: listed apart in the source
[11] = in vitro; details: human, HFF-1 cells
[12] = test system: Leishmania infantum (MHOM/MA/67/ITMAP-263) intracellular amastigotes in THP-1; test: microbe, parasite or virus in culture; details: THP-1, read-out: L. infantum MHOM/MA/67/ITMAP263 intracellular amastigotes THP-1 cells IC50 (uM)
[13] = in vitro; details: human, THP-1 cells differentiated with PMA
[14] = test system: primary peritoneal mouse macrophages (PMM); test: cells; details: Macrophage, read-out: PMM IC50 (uM)
[15] = in vitro; details: human, HepG2 cells
[16] = read-out: L. Inf. pIC50, from L. infantum intracellular amastigote IC50 (converted)
[17] = read-out: L. infantum MHOM/MA(BE)/67/ITMAP263 intracellular amastigotes IC50 (uM), intracellular amastigotes

Compound | pIC50 [1] | pIC50 [2] | IC50 [3, 16] | pIC50 [3] | SI (vs PMM) [4] | CC50 at 3 days [5] | microsomal CLint at 0.5 μM ([6]; pH 7.4, MLM CLint) | microsomal CLint at 0.5 μM ([7]; pH 7.4, HLM CLint) | Papp [8] | chromatographic logD [9] | Papp [10] | CC50 [11] | IC50 [1] | IC50 [3, 17] | IC50 [12] | CC50 at 120 h [13] | microsomal CLint at 0.5 μM ([6]; pH 7.4, MLM CLint (uL/min/mg)) | microsomal CLint at 0.5 μM ([7]; pH 7.4, HLM CLint (uL/min/mg)) | IC50 [14] | CC50 [15] | also measured
COc1ccc(OC)c(S(=O)(=O)NCc2ccccc2)c1 [DNDI0003365408] | < 4.19 | < 4.19 | > 64 µM | < 4.19 | 1 | > 64 µM | 1250 µL/min/mg | 126 µL/min/mg | 16.8 ×10⁻⁶ cm/s | 2.8 |  |  |  |  |  |  |  |  |  |  | 
CCCCC(=O)Nc1cccnc1S(=O)(=O)CCc1ccccc1 [DNDI0003363561] | < 4.19 | < 4.19 | > 64 µM | < 4.19 | 1 | > 64 µM |  |  | 18.9 ×10⁻⁶ cm/s | 3.9 |  |  |  |  |  |  |  |  |  |  | 
COc1ccc(Cl)cc1S(=O)(=O)N(CCO)Cc1ccccc1 [DNDI0003366068] | 4.57 | < 4.19 | 37.2 µM | 4.43 | 2 | > 64 µM |  | 180 µL/min/mg | 20.1 ×10⁻⁶ cm/s | 3.5 |  |  |  |  |  |  |  |  |  |  | 
CC[C@H](Cc1ccccc1)S(=O)(=O)c1ccccc1OC [DNDI0003362003] | 4.50 | < 4.19 | 34.7 µM | 4.46 | 2 | > 64 µM | 1060 µL/min/mg | 458 µL/min/mg | 19.8 ×10⁻⁶ cm/s | 3.5 |  |  |  |  |  |  |  |  |  |  | 
CCN(Cc1ccccc1)S(=O)(=O)c1ccc(C)cc1 [DNDI0003297129] | 4.54 | < 4.19 | 49 µM | 4.31 | 1 | > 64 µM |  | 1740 µL/min/mg | 5.38 ×10⁻⁶ cm/s | 4.1 |  |  |  |  |  |  |  |  |  |  | 
O=S(=O)(NCc1ccccc1)c1cc(F)ccc1F [DNDI0003365406] | < 4.19 | < 4.19 | 49 µM | 4.31 | 1 | > 64 µM | 260 µL/min/mg | 75 µL/min/mg | 30.4 ×10⁻⁶ cm/s | 3.2 |  |  |  |  |  |  |  |  |  |  | 
CCN(Cc1ccccc1)S(=O)(=O)c1ccccc1OC [DNDI0003363820] | 4.52 | < 4.19 | 11 µM | 4.96 | 6 | 36.3 µM | 1370 µL/min/mg | 406 µL/min/mg | 18.5 ×10⁻⁶ cm/s | 3.6 |  |  |  |  |  |  |  |  |  |  | 
O=S(=O)(NCc1ccccc1)c1ccccc1 [DNDI0003363562] | < 4.19 | < 4.19 | > 64 µM | < 4.19 | 1 | > 64 µM | 161 µL/min/mg | 50 µL/min/mg | 21.6 ×10⁻⁶ cm/s | 2.9 |  |  |  |  |  |  |  |  |  |  | 
CCN(Cc1ccccc1)S(=O)(=O)c1ccc(NC(C)=O)cc1 [DNDI0003364473] | 4.48 | < 4.19 | > 64 µM | < 4.19 | 1 | > 64 µM | 398 µL/min/mg | 205 µL/min/mg | 13.6 ×10⁻⁶ cm/s | 3.5 |  |  |  |  |  |  |  |  |  |  | 
COc1ccc(Cl)cc1S(=O)(=O)N(Cc1ccccc1)OC [DNDI0003364476] | 5.10 | < 4.19 | 24.5 µM | 4.61 | 3 | > 64 µM | 1890 µL/min/mg | 265 µL/min/mg | 5.91 ×10⁻⁶ cm/s | 4.3 |  |  |  |  |  |  |  |  |  |  | 
CC[C@H](Cc1ccccc1)[S+]([O-])c1ccccc1OC (some centres unmarked) [DNDI0003362001] | 4.50 | < 4.19 | 52.5 µM | 4.28 | 1 | > 64 µM | 3620 µL/min/mg | 390 µL/min/mg | 9.42 ×10⁻⁶ cm/s | 3.7 |  |  |  |  |  |  |  |  |  |  | 
COc1ccc(S(N)(=O)=O)cc1S(=O)(=O)NCc1ccccc1 [DNDI0003407892] |  |  | > 64 µM |  |  | > 64 µM |  |  |  |  | 0.61 ×10⁻⁶ cm/s | > 64 µM | > 64 µM | > 64 µM | > 64 µM | > 64 µM | 23 µL/min/mg | 20 µL/min/mg | > 64 µM | > 64 µM | chromatographic logD ([9]; experimental): 1.1
CCN(Cc1ccc(F)cc1)S(=O)(=O)c1cc(C(=O)N2CCOCC2)ccc1OC [DNDI0003392124] |  |  | 20.9 µM |  |  | > 64 µM |  |  |  |  | 15.5 ×10⁻⁶ cm/s | > 64 µM | 36 µM | 20.7 µM | > 64 µM | > 64 µM | 116 µL/min/mg | 142 µL/min/mg | > 64 µM | > 64 µM | chromatographic logD ([9]; experimental): 2.7
COc1ccc(C(=O)N2CCOCC2)cc1S(=O)(=O)N(Cc1ccc(C(F)(F)F)nc1)C(C)c1ccc(F)cc1 (centres unmarked) [DNDI0003407905] |  |  | 2.34 µM |  |  | > 64 µM |  |  |  |  | 18.1 ×10⁻⁶ cm/s | 49.4 µM | 25 µM | 2.36 µM | 9.86 µM | > 64 µM | 531 µL/min/mg | 267 µL/min/mg | > 64 µM | > 64 µM | chromatographic logD ([9]; experimental): 3.8
CCN(Cc1ccccc1)S(=O)(=O)c1cc(OC)ccc1OC [DNDI0003365407] | 4.56 | < 4.19 | 2.51 µM | 5.60 | 25 | > 64 µM | 3500 µL/min/mg | 534 µL/min/mg | 11.9 ×10⁻⁶ cm/s |  |  |  |  |  |  |  |  |  |  |  | 
COc1cc2c(cc1S(=O)(=O)N(Cc1ccccc1)Cc1ccccc1)S(=O)(=O)NCN2 [DNDI0003425513] |  |  | 2.51 µM |  |  | 22.9 µM |  |  |  |  | 0.38 ×10⁻⁶ cm/s | 21.9 µM | 9.44 µM | 2.53 µM | 48.3 µM | > 64 µM | 249 µL/min/mg | 100 µL/min/mg | > 64 µM | > 64 µM | chromatographic logD ([9]; experimental): 3.6
O=C(c1ccc(OCC2CCCO2)c(S(=O)(=O)NCc2ccccc2)c1)N1CCOCC1 (centres unmarked) [DNDI0003407877] |  |  | > 64 µM |  |  | > 64 µM |  |  |  |  | 14.7 ×10⁻⁶ cm/s | > 64 µM | 31 µM | > 64 µM | > 64 µM | > 64 µM | 181 µL/min/mg | 85 µL/min/mg | > 64 µM | > 64 µM | chromatographic logD ([9]; experimental): 2.7
O=S(=O)(NCc1ccccc1)c1cc2c(cc1Cl)NCN(Cc1ccccc1)S2(=O)=O [DNDI0003392144] |  |  | > 64 µM |  |  | > 64 µM |  |  |  |  | 1.61 ×10⁻⁶ cm/s | 60.2 µM | 35.7 µM | > 64 µM | > 64 µM | 53.2 µM | 261 µL/min/mg | 82 µL/min/mg | > 64 µM | > 64 µM | chromatographic logD ([9]; experimental): 3.7
COc1ccc(OC)c(S(=O)(=O)N(Cc2ccccc2)Cc2ccccc2)c1 [DNDI0003292440] | 5.24 | < 4.19 | 0.372 µM | 6.44 |  | 45.2 µM | 1300 µL/min/mg | 242 µL/min/mg | 0.43 ×10⁻⁶ cm/s |  |  |  |  |  |  |  |  |  |  |  | 
COc1ccc(C#N)cc1S(=O)(=O)N(Cc1ccc(C(F)(F)F)nc1)Cc1ccc(C(F)(F)F)nc1 [DNDI0003578377] |  |  | 38 µM |  |  | > 64 µM |  |  |  |  | 3.45 ×10⁻⁶ cm/s | > 64 µM | 61.7 µM | 38.1 µM | > 64 µM | > 64 µM | 64 µL/min/mg | 17 µL/min/mg | > 64 µM | > 64 µM | chromatographic logD ([9]; experimental): 3.9
CCCCOc1ccc(C(=O)N2CCOCC2)cc1S(=O)(=O)NCc1ccccc1 [DNDI0003407874] |  |  | > 64 µM |  |  | > 64 µM |  |  |  |  | 27.4 ×10⁻⁶ cm/s | > 64 µM | 45.9 µM | > 64 µM | > 64 µM | > 64 µM | 274 µL/min/mg | 160 µL/min/mg | > 64 µM | > 64 µM | chromatographic logD ([9]; experimental): 3.1
